# Measurements: ChEMBL document CHEMBL1201862, “PubChem BioAssay data set” (2004)
# The source made the active and inactive calls.
# Assays:
# [1] = biological target: Dual specificity protein kinase CLK1 (Homo sapiens, UniProt P49759); test: CLK1 kinase inhibitors, off-target check, dose response, selectivity assay for Dyrk1A inhibitor project, biochemical, cherry-picked samples (AID 588811)
# [2] = biological target: Dual specificity tyrosine-phosphorylation-regulated kinase 1A (Rattus norvegicus, UniProt Q63470); assay type: biochemical, Homo sapiens
# [3] = biological target: T1, Endoribonuclease toxin MazF (Escherichia coli K-12, UniProt P0AE70); test: MazF toxin RNase activators, dose response, biochemical, fluorescence, single-stranded RNA substrate, uHTS hits (AID 588481); assay type: functional
# T1 sequence (P0AE70 whole entry): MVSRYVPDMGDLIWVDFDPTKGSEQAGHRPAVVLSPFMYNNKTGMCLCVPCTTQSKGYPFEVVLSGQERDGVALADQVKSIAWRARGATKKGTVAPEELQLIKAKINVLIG
# [4] = biological target: T1, Endoribonuclease toxin MazF; test: fluorescent RNA oligo signal without MazF, dose response, counter-screen for MazEF activator project, biochemical, fluorescence, single-stranded RNase substrate (AID 588502); assay type: functional
# [5] = biological target: Beta-galactosidase (Escherichia coli, UniProt Q8VNN2); test: PubChem AID 485352; assay type: functional
# [6] = biological target: T2, Type-1 angiotensin II receptor (Homo sapiens, UniProt P30556); test: AT1 receptor antagonists, dose response, selectivity assay for APJ receptor antagonist project, cell-based, uHTS hits (AID 463214); assay type: functional;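 further: antagonist potency against angiotensin II stimulated AT1 response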
# T2 sequence (P30556 whole entry): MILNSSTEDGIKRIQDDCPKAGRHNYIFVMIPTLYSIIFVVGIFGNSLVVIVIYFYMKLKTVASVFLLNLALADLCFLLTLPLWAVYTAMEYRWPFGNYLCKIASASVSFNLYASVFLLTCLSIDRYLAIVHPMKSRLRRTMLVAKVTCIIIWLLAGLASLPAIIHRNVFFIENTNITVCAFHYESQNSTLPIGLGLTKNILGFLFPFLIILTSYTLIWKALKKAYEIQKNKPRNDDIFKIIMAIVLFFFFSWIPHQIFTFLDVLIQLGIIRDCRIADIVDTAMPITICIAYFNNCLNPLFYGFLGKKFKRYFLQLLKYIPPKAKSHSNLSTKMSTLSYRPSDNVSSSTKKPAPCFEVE
# [7] = system: BJ; test: cytotoxicity toward BJ-TERT-LT-ST fibroblasts, dose response, cell-based, RAS-independent, luminescence (AID 1935); assay type: functional; conditions: Homo sapiens;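 further: BJ fibroblasts immortalized with TERT plus LT and ST oncogenes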
# [8] = cytotoxicity in HEK-293T NF-kB-Luc cells, dose response, cytotoxicity control for B/T-cell NF-kB inhibitor project, cell-based, uHTS hits (AID 489019); assay type: functional;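 further: IC50 reflects cytotoxicity as loss of cell viability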
# [9] = system: BJ; test: cells; assay type: functional, cell-based; conditions: Homo sapiens
# [10] = cytotoxicity toward DRD oncogenic fibroblasts, dose response, cell-based, non-viral oncogenic, luminescence (AID 1934); assay type: functional; conditions: Homo sapiens
# [11] = system: BJ; test: cytotoxicity toward BJ-TERT fibroblasts, dose response, cell-based, RAS-independent, luminescence (AID 1933); assay type: functional; conditions: Homo sapiens
# [12] = system: BJ; test: cytotoxicity toward Ras-transformed BJeLR fibroblasts, dose response, cell-based, alamar blue fluorescence, cherrypicked samples (AID 2631); assay type: functional; conditions: Homo sapiens;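 further: confirmatory dose-response assay in RAS-dependent BJ fibroblasts engineered with TERT, LT and ST, with cytotoxicity read by fluorescence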
# [13] = system: Jurkat; test: antigen receptor-induced NF-kB inhibitors, dose response, Jurkat, luciferase reporter, luminescence, B- and T-cell (AID 489004); assay type: functional, cell-based; conditions: Homo sapiens;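 further: NF-kB luciferase reporter Jurkat cells stimulated with PMA plus ionomycin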
# [14] = biological target: Beta-2 adrenergic receptor (Homo sapiens, UniProt P07550); test: beta2AR agonists driving receptor internalization, dose response, cell-based, FAP fluorogen, flow cytometry, cherry pick 1 (AID 588763); assay type: functional
# [15] = system: Streptococcus; test: Group A Streptococcus viability loss, dose response, counter-screen for streptokinase expression inhibitor project, luminescence, BacTiterGlo (AID 1915); assay type: functional, organism-based;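 further: potency for reduction of bacterial viability or growth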
# [16] = system: HEK293; test: cells; assay type: functional, cell-based; conditions: Homo sapiens
# [17] = system: HEK293; test: cells; assay type: functional, cell-based; conditions: Homo sapiens; remark: listed apart in the source
# [18] = biological target: T3, Bcl-2-related protein A1 (Mus musculus, UniProt Q07440); assay type: functional;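 further: confirmatory dose–response counterscreen on Bfl-1, used to check hits from a UBC13 polyubiquitin inhibitor campaign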
# T3 sequence (Q07440 whole entry): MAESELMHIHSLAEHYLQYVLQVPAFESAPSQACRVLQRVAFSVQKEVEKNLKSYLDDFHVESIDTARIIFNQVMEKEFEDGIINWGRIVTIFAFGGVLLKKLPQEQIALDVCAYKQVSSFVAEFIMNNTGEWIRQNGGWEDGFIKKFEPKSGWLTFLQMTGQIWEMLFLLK
# [19] = system: HEK293; test: inhibitors of LMP1-driven NF-kB reporter, dose response, cell-based, HEK293, luciferase, cherry-pick (AID 588343); assay type: functional, Homo sapiens; conditions: Homo sapiens, HEK293
# [20] = biological target: T4, Ubiquitin-conjugating enzyme E2 N (Homo sapiens, UniProt P61088); assay type: functional
# T4 sequence (P61088 whole entry): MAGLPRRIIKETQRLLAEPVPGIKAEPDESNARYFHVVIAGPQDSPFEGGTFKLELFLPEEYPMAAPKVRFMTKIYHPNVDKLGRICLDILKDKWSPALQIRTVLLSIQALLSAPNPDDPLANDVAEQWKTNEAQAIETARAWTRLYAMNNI
# [21] = system: Streptococcus sp. 'group A'; test: growth inhibition of control SK(-) GAS strain, dose response, counter-screen for streptokinase expression inhibitor project, luminescence, kanamycin, BacTiterGlo, confirmation (AID 1900); assay type: functional, organism-based
# [22] = biological target: T4, Ubiquitin-conjugating enzyme E2 N; assay type: functional; remark: listed apart in the source
# [23] = biological target: Hepatocyte nuclear factor 4-alpha (Homo sapiens, UniProt P41235); assay type: functional, cell-based;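 further: biochemical luminescence-based dose-response counterscreen measuring inhibition of HNF4 dimerization, run alongside a screen for blockers of ABHD5–perilipin-5 interaction; split luciferase complementation of HNF4 fusion proteins in cell lysate measuring dimerization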
# [24] = system: HEK293; test: NOD1 signaling inhibitors, primary screen, cell-based, luminescence, uHTS (AID 1578); assay type: functional; conditions: Homo sapiens
# [25] = inhibitors of firefly luciferase expression or activity, dose response, H4 neuroglioma cells, luminescence (AID 1990); assay type: functional, cell-based
# [26] = microbe, parasite or virus in culture; assay type: functional; conditions: Mycobacterium tuberculosis
# [27] = control 3'UTR Renilla luciferase suppression, dose response, counter-screen for Shn3 inhibitor project, cell-based, Clone20-Shn3RL, cherry-picked (AID 624133); assay type: functional
# [28] = biological target: T5, Streptokinase A (Streptococcus pyogenes serotype M1, UniProt P10520); test: S. pyogenes streptokinase expression inhibitors, potency, dose response, plasminogen activation absorbance, OD405 (AID 1914); assay type: functional, Streptococcus pyogenes M1 GAS;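 further: secreted streptokinase activity via plasminogen activation per viability signal from cell pellet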
# T5 sequence (P10520 whole entry): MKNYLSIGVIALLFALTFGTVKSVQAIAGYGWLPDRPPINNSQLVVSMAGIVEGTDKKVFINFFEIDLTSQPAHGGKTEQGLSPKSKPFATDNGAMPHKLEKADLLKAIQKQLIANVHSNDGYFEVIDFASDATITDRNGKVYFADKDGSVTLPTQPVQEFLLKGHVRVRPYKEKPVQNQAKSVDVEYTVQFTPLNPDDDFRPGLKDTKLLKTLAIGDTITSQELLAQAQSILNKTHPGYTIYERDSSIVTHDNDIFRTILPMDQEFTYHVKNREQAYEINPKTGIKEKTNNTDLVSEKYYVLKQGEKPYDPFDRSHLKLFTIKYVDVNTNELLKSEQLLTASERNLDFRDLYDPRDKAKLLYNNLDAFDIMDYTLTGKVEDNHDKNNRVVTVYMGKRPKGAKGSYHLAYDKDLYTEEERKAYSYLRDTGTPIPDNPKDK
# [29] = HeLa cell cytotoxicity, dose response, cytotoxicity control for MgcRacGAP inhibitor project (AID 624300); assay type: functional
# [30] = HepG2 cell cytotoxicity, dose response, cytotoxicity control for Shn3 inhibitor project, CellTiter-Glo, cherry-picked (AID 624134); assay type: functional, cell-based
# [31] = biological target: T6, Rac GTPase-activating protein 1 (Homo sapiens, UniProt Q9H0H5); test: MgcRacGAP GTPase-activating activity inhibitors, confirmation, biochemical, ADP Hunter fluorescence, primary and confirmatory (AID 624330); assay type: functional
# T6 sequence (Q9H0H5 whole entry): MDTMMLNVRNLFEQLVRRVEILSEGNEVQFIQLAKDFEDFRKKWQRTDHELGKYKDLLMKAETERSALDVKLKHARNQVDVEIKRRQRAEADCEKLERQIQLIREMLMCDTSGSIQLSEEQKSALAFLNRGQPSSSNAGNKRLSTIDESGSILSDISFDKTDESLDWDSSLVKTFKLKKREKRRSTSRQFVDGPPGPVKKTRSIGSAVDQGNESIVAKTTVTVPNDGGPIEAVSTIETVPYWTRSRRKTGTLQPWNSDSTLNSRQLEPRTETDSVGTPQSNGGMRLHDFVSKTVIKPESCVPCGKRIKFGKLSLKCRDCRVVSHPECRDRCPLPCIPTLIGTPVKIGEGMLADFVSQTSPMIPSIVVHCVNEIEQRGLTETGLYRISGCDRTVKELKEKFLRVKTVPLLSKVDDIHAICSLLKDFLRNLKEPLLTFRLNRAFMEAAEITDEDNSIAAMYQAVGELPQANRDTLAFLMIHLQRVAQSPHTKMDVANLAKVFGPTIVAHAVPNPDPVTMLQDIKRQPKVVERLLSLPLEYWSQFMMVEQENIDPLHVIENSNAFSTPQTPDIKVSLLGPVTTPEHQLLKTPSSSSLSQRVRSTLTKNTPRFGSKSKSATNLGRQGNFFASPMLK
# [32] = Shn3 3'UTR reporter inhibitors, dose response, cell-based, Clone20 osteoblasts, firefly luciferase, cherry-picked (AID 624132); assay type: functional;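 further: firefly luciferase luminescence from reporter carrying the Shn3 3'UTR in osteoblasts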
# [33] = Luminescence Cell-Based Dose Response HTS to Identify Inhibitors of 5'UTR Stem-Loop Driven Prion Protein mRNA Translation in H4 Neuroglioblastoma Cells. [Related pubchem assays: 1827 (Project Summary), 1813 (Primary HTS)]; assay type: functional
# [34] = inhibitors of SNCA 5'UTR-driven reporter translation, confirmation, H4 neuroglioma cells, luminescence (AID 1988); assay type: functional, cell-based
# [35] = biological target: Nonstructural protein 1 (Influenza A virus, UniProt Q194T2); assay type: functional, Influenza A virus (A/California/07/2009(H1N1))
# [36] = system: INS1; test: beta cell apoptosis inhibitors, cytokine rescue, dose response, luminescence, retest (AID 449756); assay type: functional, cell-based; conditions: Rattus norvegicus;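 further: cell death triggered by IL-1 beta plus TNF-alpha plus IFN-gamma mixture; protective hits raise ATP signal compared with cytokine alone wells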
# [37] = cells; assay type: functional, cell-based
# [38] = cells; assay type: functional, cell-based; remark: listed apart in the source
# Chain of Beta-galactosidase (Q8VNN2 whole entry): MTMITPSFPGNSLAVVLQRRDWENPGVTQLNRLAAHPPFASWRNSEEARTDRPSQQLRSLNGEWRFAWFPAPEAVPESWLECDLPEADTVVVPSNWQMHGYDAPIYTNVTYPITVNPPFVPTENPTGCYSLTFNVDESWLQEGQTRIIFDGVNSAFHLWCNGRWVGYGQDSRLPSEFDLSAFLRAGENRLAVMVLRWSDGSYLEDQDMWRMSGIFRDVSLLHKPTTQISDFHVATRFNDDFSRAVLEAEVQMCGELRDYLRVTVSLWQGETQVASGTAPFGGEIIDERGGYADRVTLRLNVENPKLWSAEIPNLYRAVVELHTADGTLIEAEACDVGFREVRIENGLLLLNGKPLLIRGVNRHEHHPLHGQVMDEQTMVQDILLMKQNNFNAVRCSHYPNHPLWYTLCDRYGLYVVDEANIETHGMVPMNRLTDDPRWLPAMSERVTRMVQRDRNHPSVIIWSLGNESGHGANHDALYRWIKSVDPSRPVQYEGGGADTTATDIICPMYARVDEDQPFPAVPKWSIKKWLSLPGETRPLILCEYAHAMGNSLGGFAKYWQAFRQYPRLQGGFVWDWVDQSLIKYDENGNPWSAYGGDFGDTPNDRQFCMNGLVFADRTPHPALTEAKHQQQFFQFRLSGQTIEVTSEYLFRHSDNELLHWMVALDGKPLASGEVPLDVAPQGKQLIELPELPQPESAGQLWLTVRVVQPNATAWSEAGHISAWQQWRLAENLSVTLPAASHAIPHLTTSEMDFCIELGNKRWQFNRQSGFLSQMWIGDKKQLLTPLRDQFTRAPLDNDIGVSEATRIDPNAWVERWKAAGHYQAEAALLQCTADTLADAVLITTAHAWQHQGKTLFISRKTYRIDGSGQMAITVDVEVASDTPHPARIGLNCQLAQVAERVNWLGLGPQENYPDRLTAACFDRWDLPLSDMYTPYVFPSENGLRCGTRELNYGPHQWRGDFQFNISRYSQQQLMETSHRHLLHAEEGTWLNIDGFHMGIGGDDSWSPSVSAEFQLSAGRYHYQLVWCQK
# Chain of Dual specificity protein kinase CLK1 (P49759 whole entry): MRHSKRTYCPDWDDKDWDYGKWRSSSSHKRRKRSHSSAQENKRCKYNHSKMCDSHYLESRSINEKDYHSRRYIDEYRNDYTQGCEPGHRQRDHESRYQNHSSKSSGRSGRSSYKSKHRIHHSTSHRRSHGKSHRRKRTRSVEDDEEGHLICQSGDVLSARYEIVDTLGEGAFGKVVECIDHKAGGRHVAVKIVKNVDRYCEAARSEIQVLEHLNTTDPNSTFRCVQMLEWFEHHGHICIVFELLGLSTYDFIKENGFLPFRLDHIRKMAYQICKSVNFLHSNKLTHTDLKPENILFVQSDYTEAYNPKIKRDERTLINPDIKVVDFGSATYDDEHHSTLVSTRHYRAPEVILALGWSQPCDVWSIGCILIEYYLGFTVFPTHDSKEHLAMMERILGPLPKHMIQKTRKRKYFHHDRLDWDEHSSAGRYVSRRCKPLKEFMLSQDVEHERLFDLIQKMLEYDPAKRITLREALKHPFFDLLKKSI
# Chain of Hepatocyte nuclear factor 4-alpha (P41235 whole entry, the tested form may be a part): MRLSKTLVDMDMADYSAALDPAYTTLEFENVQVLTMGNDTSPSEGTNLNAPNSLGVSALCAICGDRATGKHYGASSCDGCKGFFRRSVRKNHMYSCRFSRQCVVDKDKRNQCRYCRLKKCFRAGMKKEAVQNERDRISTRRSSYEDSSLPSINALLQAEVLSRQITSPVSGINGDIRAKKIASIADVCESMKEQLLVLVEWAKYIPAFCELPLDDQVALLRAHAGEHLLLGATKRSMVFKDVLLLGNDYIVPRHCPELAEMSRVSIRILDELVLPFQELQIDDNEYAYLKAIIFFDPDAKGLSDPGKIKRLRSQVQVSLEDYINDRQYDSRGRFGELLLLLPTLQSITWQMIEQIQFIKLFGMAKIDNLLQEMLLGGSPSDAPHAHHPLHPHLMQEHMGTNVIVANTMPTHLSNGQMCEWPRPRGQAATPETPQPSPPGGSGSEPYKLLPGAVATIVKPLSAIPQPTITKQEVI
# Chain of Beta-2 adrenergic receptor (P07550 whole entry): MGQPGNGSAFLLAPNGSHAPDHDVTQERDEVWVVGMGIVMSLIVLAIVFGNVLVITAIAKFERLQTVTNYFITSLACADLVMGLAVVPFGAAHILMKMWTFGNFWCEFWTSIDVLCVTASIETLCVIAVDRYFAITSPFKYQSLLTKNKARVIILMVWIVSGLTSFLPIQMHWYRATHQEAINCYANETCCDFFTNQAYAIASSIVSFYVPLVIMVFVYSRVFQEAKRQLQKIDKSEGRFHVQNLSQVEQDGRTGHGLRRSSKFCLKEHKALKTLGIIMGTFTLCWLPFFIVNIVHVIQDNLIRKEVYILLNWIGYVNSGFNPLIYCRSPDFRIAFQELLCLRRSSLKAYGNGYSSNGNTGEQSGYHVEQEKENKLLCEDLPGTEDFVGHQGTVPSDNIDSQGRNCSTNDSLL
# Chain of Nonstructural protein 1 (Q194T2 whole entry): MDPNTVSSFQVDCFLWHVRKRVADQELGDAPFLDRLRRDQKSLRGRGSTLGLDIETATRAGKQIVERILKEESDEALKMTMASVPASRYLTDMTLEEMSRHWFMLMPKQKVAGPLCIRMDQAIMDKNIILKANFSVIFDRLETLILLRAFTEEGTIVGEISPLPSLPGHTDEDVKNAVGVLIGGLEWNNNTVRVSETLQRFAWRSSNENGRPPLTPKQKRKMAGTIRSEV
smiles,measurement,setting,value
O=C(COc1ccccc1)Nc1cccc(-c2cn3cccnc3n2)c1,AC50,[1],10.4 µM (active)
same,AC50,[2],3.85 µM (active)
Cc1cc(OCC(=O)NCc2ccc(S(N)(=O)=O)cc2)c2c3c(c(=O)oc2c1)CCC3,EC50,[3],> 99 µM (inactive)
same,EC50,[4],> 99 µM (inactive)
O=C(CCC(=O)OCC(=O)c1cccc([N+](=O)[O-])c1)Nc1cccc(Cl)c1Cl,EC50,[5],> 40 µM (inactive)
same,IC50,[6],34.2 µM (not active)
CC1CCCN(c2ccc([N+](=O)[O-])cc2C(=O)c2ccccc2)C1 (centres undefined),EC50,[7],0.657 µM (inconclusive)
same,IC50,[8],> 80 µM (inactive)
same,EC50,[9],1.32 µM (active)
same,EC50,[10],1.29 µM (active)
same,EC50,[11],1.27 µM (active)
same,EC50,[12],0.314 µM (active)
same,IC50,[13],40.6 µM (inactive)
same,EC50,[14],12.2 µM (inactive)
CCN1CCN(Cc2ccc(NC(=O)c3ccc(C)c(/C=C/c4cnc(Nc5cc(N6CCNCC6)nc(C)n5)cn4)c3)cc2C(F)(F)F)CC1,EC50,[15],> 150 µM (not active)
same,IC50,[16],> 20 µM (inactive)
same,IC50,[17],> 20 µM (inactive)
same,IC50,[18],> 20 µM (inactive)
same,AC50,[19],0.725 µM (active)
same,IC50,[20],9.4 µM (active)
same,EC50,[21],6.36 µM (active)
same,IC50,[22],11.1 µM (active)
same,AC50,[1],1.99 µM (active)
same,IC50,[23],5.88 µM (active)
same,EC50,[24],7.23 µM (active)
same,AC50,[2],12.8 µM (active)
same,EC50,[25],0.424 µM (inconclusive)
same,CC50,[26],6.89 µM (active)
same,AC50,[27],27.6 µM (active)
same,EC50,[28],86.5 µM (active)
same,CC50,[29],21.6 µM (active)
same,AC50,[30],19.6 µM (active)
same,IC50,[31],41 µM (active)
same,AC50,[32],9.56 µM (active)
Cc1ncc(CO)c(/C=N/Nc2ccc(C(F)(F)F)cn2)c1O,EC50,[33],1.01 µM (active)
same,AC50,[2],5.06 µM (active)
same,EC50,[25],5.4 µM (active)
same,EC50,[34],0.907 µM (active)
same,IC50,[35],7.34 µM (active)
same,AC50,[36],0.944 µM (active)
same,EC50,[5],> 40 µM (inactive)
same,IC50,[6],28.7 µM (not active)
same,EC50,[37],8.1 µM (active)
same,EC50,[38],> 350 µM (not active)
